As a reminder, the pIC50 is −log10 of the IC50, conventionally taken in molar units.

pIC50: −log10 of the molar value. Structures can show the parent of a compound that is named as a salt. Some results are limits rather than exact numbers.

The test system of one assay is fixed protein (gelatin, i.e., collagen) surface. The assay is described as follows: Surface browning experiment on gelatin/paper disks in glucose-6-phosphate. To be noted: 100 mM glucose-6-phosphate, one week at 50°C; Peridex® at a final concentration of 0.04% chlorhexidine.
Method: To further study the ability of inhibitors of nonenzymatic browning to prevent the discoloration of protein on a surface, such as that which occurs on the tooth surface, the following surface browning experiment is performed. As a substitute for a pellicle-covered tooth surface, unexposed and developed photographic paper is used to provide a fixed protein (gelatin, i.e., collagen) surface on a paper backing. Five millimeter circles are punched and immersed for one week at 50°C in a solution of 100 mM glucose-6-phosphate in a 0.5 M phosphate buffer, pH 7.4, containing 3 mM sodium azide. […] In addition to the glucose-6-phosphate, chlorhexidine and/or a compound of Formula I are included. After incubation, the gelatin/paper disks are rinsed with water, observed for brown color, and photographed.
As to `[H]/N=C(\N/C(=N/[H])NCCCCCCNC(=N)NC(=N)Nc1ccc(Cl)cc1)Nc1ccc(Cl)cc1` [chlorhexidine], the “brown color of gelatin/paper disks” value is listed as “significant browning”.

Test system in a further assay: not listed separately
The assay is described as follows: Inhibition of cross-linking of N-acetyl glycyl-lysine methyl ester in the presence of ribose (fluorescence). Type of assay: biochemical. To be noted: 0.5 M sodium phosphate buffer pH 7.4, 37° C, 16-24 hours, fluorescence 350/400 nm. The method, then: The following method was used to evaluate the ability of the compounds of the present invention to inhibit the cross-linking of N-acetyl glycyl-lysine methyl ester in the presence of ribose. […] Reaction mixtures are prepared as follows: [table] […] At the end of the incubation period reaction mixture is diluted with 3 ml distilled water and the fluorescence is read using an excitation wavelength of 350 nm and emission wavelength of 400 nm.
Turning to “2-methyl-[6'-(3',4'-diamino-5(4H)-one-1,2,4-triazinyl)]hydrazide”, the pIC50 was 3.08.

As for `CC(C)(CO)c1nnc(N)n(N)c1=O` [3,4-diamino-6-(1',1'-dimethyl-2'-hydroxyethyl)-1,2,4-triazine-5(4H)-one], the pIC50 was 3.01.

For the compound `CCOC(=O)C(C)c1nnc(N)n(N)c1=O` (centres unmarked) [3,4-diamino-6-(1'-ethoxycarbonylethyl)-1,2,4-triazine-5(4H)-one hydrochloride], the pIC50 is 2.78.

Regarding `CCCCCCC(C(=O)OCC)c1nnc(N)n(N)c1=O` (centres unmarked) [3,4-diamino-6-(1'-ethoxycarbonylheptyl)-1,2,4-triazine-5(4H)-one hydrochloride], the pIC50 was 3.32.

For `CCC(C)c1nnc(N)n(N)c1=O` (centres unmarked) [3,4-diamino-6-(1-methylpropyl)-1,2,4-triazine-5(4H)-one], the negative logarithm of the IC50 (pIC50) was 2.85.

Turning to `Nc1nnc(CCC(=O)O)c(=O)n1N` [3,4-diamino-6-(2'-carboxyethyl)-1,2,4-triazine-5(4H)-one], the pIC50 is 2.71.

`CCOC(=O)CCc1nnc(N)n(N)c1=O` [3,4-diamino-6-(2'-ethoxycarbonylethyl)-1,2,4-triazine-5(4H)-one hydrochloride]: the pIC50 was 3.08.

For `Nc1nnc(Cc2ccccc2[N+](=O)[O-])c(=O)n1N` [3,4-diamino-6-(2'-nitrobenzyl)-1,2,4-triazine-5(4H)-one hydrochloride], the pIC50 was 3.05.

As to `CC(C)Cc1nnc(N)n(N)c1=O` [3,4-diamino-6-(2-methypropyl)-1,2,4-triazine-5(4H)-one], the pIC50 was 2.94.

Take `COc1cccc(C(=O)Cc2nnc(N)n(N)c2=O)c1` [3,4-diamino-6-(3'-methoxyphenylcarbonylmethylene)-1,2,4-triazine-5(4H)-one hydrochloride]: the pIC50 is less than 2.00.

Take `COc1ccc(C=Cc2nnc(N)n(N)c2=O)cc1OC` [3,4-diamino-6-(3,4-dimethoxystyryl)-1,2,4-triazine-5(4H)-one hydrochloride]: the pIC50 is 3.46.

On to `Nc1nnc(Cc2ccc(O)cc2)c(=O)n1N` [3,4-diamino-6-(4-hydroxybenzyl)-1,2,4-triazine-5(4H)-one hydrochloride], for which the pIC50 was 2.36.

Consider `Nc1nnc(Cc2ccccc2)c(=O)n1N` [3,4-diamino-6-benzyl-1,2,4-triazine-5(4H)-one hydrochloride], for which the pIC50 is 2.92.

On to `CCOC(=O)c1nnc(N)n(N)c1=O` [3,4-diamino-6-carboxyethyl-1,2,4-triazine-5(4H)-one hydrochloride], for which the pIC50 was 3.14.

In the case of `Nc1nnc(C2CC2)c(=O)n1N` [3,4-diamino-6-cyclopropyl-1,2,4-triazine-5(4H)-one], the pIC50 was 2.70.

Consider `CCc1nnc(N)n(N)c1=O` [3,4-diamino-6-ethyl-1,2,4-triazine-5(4H)-one hydrochloride], for which the pIC50 was 2.70.

`CC(C)c1nnc(N)n(N)c1=O` [3,4-diamino-6-isopropyl-1,2,4-triazine-5(4H)-one hydrochloride]: the pIC50 is 2.98.

For `Cc1nnc(N)n(N)c1=O` [3,4-diamino-6-methyl-1,2,4-triazine-5(4H)-one], the pIC50 was 2.91.

For the compound `Nc1nnc(CCc2ccccc2)c(=O)n1N` [3,4-diamino-6-phenethyl-1,2,4-triazine-5(4H)-one hydrochloride], the pIC50 is 2.57.

With `CCCc1nnc(N)n(N)c1=O` [3,4-diamino-6-propyl-1,2,4-triazine-5(4H)-one hydrochloride], the pIC50 was 2.89.

For the compound `NNC(=O)CCc1nnc(N)n(N)c1=O` [3-[6'-(3',4'-diamino-5'(4H)-one-1',2',4'-triazinyl)]-propionic hydrazide hydrochloride], the pIC50 was 2.82.

Consider `NNc1nncc(=O)n1N` [4-amino-3-hydrazino-1,2,4-triazin-5(4H)-one hydrochloride], for which the pIC50 is less than 2.00.

`NNc1nnc(Cc2ccc(O)cc2)c(=O)n1N` [4-amino-3-hydrazino-6-(4'-hydroxybenzyl)-1,2,4-triazin-5(4H)-one hydrochloride]: the pIC50 was less than 3.00.

As to `Cc1nnc(NN)n(N)c1=O` [4-amino-3-hydrazino-6-methyl-1,2,4-triazin-5(4H)-one hydrochloride], the pIC50 was more than 2.52.

`NNC(=O)c1nnc(N)n(N)c1=O` [6-(3',4'-diamino-5(4H)-one-1,2,4-triazinyl)hydrazide]: the pIC50 is 3.14.

Source of the values: patent EP0889884B1, “1,2,4-TRIAZINE DERIVATIVES FOR THE INHIBITION OF PROTEIN GLYCOSYLATION” (ALTEON Inc., priority 1996, dated 1997).
